Experimental data: ChEMBL document CHEMBL1201862, “PubChem BioAssay data set” (2004)
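Results reflect a 48-hour exposure of cells in 96-well plates to compound at five concentrations. Abbreviation: GI50, concentration required for 50% inhibition of growth.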 Calls of active or inactive are those of the source. Rule as the data show it: active = GI50 up to about 1.1 µM and inactive = higher.

Tests used:
Experiment in all cases: NCI tumour cell line growth inhibition, 48 h
MDA-N = test system: MDA-N
UACC-257 = test system: UACC-257
IGROV-1 = test system: IGROV-1
LOX IMVI = test system: LOX IMVI
SN12C = test system: SN12C
HCC 2998 = test system: HCC 2998
OVCAR-8 = test system: OVCAR-8
OVCAR-5 = test system: OVCAR-5
OVCAR-3 = test system: OVCAR-3
U-251 = test system: U-251
Malme-3M = test system: Malme-3M
SR = test system: SR
SNB-75 = test system: SNB-75
SF-268 = test system: SF-268
UACC-62 = test system: UACC-62
NCI-H460 = test system: NCI-H460
T47D = test system: T47D
MDA-MB-231 = test system: MDA-MB-231
MOLT-4 = test system: MOLT-4
A498 = test system: A498

For `CC1=C(/C=C/C(C)=C/C=C/C(C)=C/C(=O)OC2CC(n3cc(F)c(=O)[nH]c3=O)OC2CO)C(C)(C)CCC1` (stereo not drawn), the GI50 (MDA-N) was 6.82 µM (inactive), the GI50 (UACC-257) was 7.91 µM (inactive) and the GI50 (IGROV-1) was 7.13 µM (inactive). The GI50 (LOX IMVI) was 2.15 µM (inactive), the GI50 (SN12C) was 4.5 µM (inactive) and the GI50 (HCC 2998) was 1.97 µM (inactive). The GI50 (OVCAR-8) was 0.526 µM (active), the GI50 (OVCAR-5) was 17.3 µM (inactive) and the GI50 (OVCAR-3) was 4.72 µM (inactive). The GI50 (U-251) was 1.2 µM (inactive), the GI50 (Malme-3M) was 12.1 µM (inactive) and the GI50 (SR) was 0.247 µM (active). The GI50 (SNB-75) was 1.07 µM (active), the GI50 (SF-268) was 0.252 µM (active) and the GI50 (UACC-62) was 0.184 µM (active). For the same compound, the GI50 (NCI-H460) was 0.0429 µM (active), the GI50 (T47D) was 4.17 µM (inactive) and the GI50 (MDA-MB-231) was 9.73 µM (inactive). The GI50 (MOLT-4) was 0.2 µM (active).
In the case of `O=C1CSC2=NCC3(NN12)c1ccccc1-c1ccccc13`, the GI50 (MDA-N) is reported as > 10 µM (inactive), the GI50 (UACC-257) is reported as > 10 µM (inactive) and the GI50 (IGROV-1) is reported as > 10 µM (inactive). The GI50 (LOX IMVI) was > 10 µM (inactive), the GI50 (SN12C) was > 10 µM (inactive) and the GI50 (HCC 2998) was > 10 µM (inactive). For the same compound, the GI50 (OVCAR-8) was > 10 µM (inactive), the GI50 (Malme-3M) was > 10 µM (inactive) and the GI50 (SR) was > 10 µM (inactive). The GI50 (SNB-75) was > 10 µM (inactive), the GI50 (SF-268) was > 10 µM (inactive) and the GI50 (UACC-62) was > 10 µM (inactive). For the same compound, the GI50 (NCI-H460) was > 10 µM (inactive), the GI50 (T47D) was > 10 µM (inactive) and the GI50 (MDA-MB-231) was > 10 µM (inactive). For the same compound, the GI50 (MOLT-4) was > 10 µM (inactive).
`CC#CC(O)(C(=O)OC1CCC2CCC1N2C)C1CCCC1` (stereo not drawn) was tested, and the GI50 (MDA-N) was > 100 µM (inactive), the GI50 (UACC-257) was > 100 µM (inactive) and the GI50 (IGROV-1) was > 100 µM (inactive). The GI50 (LOX IMVI) was > 100 µM (inactive), the GI50 (SN12C) was > 100 µM (inactive) and the GI50 (HCC 2998) was > 100 µM (inactive). The GI50 (OVCAR-8) was > 100 µM (inactive), the GI50 (OVCAR-5) was > 10 µM (inactive) and the GI50 (OVCAR-3) was > 100 µM (inactive). The GI50 (U-251) was > 10 µM (inactive), the GI50 (Malme-3M) was > 100 µM (inactive) and the GI50 (SR) was > 100 µM (inactive). For the same compound, the GI50 (SNB-75) was > 100 µM (inactive), the GI50 (SF-268) was > 100 µM (inactive) and the GI50 (UACC-62) was > 100 µM (inactive). For the same compound, the GI50 (T47D) was > 100 µM (inactive), the GI50 (MDA-MB-231) was > 100 µM (inactive) and the GI50 (MOLT-4) was > 100 µM (inactive).
In the case of `O=C(CCCl)NN=C1NCCCCN1`, the GI50 (MDA-N) is reported as > 100 µM (inactive), the GI50 (UACC-257) is reported as > 100 µM (inactive) and the GI50 (IGROV-1) is reported as > 100 µM (inactive). For the same compound, the GI50 (LOX IMVI) was > 100 µM (inactive), the GI50 (SN12C) was > 100 µM (inactive) and the GI50 (HCC 2998) was > 100 µM (inactive). For the same compound, the GI50 (OVCAR-8) was > 100 µM (inactive), the GI50 (OVCAR-5) was > 100 µM (inactive) and the GI50 (OVCAR-3) was > 100 µM (inactive). The GI50 (U-251) was > 100 µM (inactive), the GI50 (Malme-3M) was > 100 µM (inactive) and the GI50 (SR) was > 100 µM (inactive). For the same compound, the GI50 (SNB-75) was > 100 µM (inactive), the GI50 (SF-268) was > 100 µM (inactive) and the GI50 (UACC-62) was > 100 µM (inactive). The GI50 (NCI-H460) was > 100 µM (inactive), the GI50 (T47D) was > 100 µM (inactive) and the GI50 (MDA-MB-231) was > 100 µM (inactive). The GI50 (MOLT-4) was > 100 µM (inactive).
In the case of `Cc1ccc(O)c(-c2cc(-c3cccc(Cl)c3)c(C#N)c(N)n2)c1`, the GI50 (MDA-N) is reported as 14.5 µM (inactive), the GI50 (IGROV-1) is reported as 6.93 µM (inactive) and the GI50 (LOX IMVI) is reported as 16.7 µM (inactive). The GI50 (SN12C) was 20.9 µM (inactive), the GI50 (OVCAR-8) was 31 µM (inactive) and the GI50 (OVCAR-5) was 24 µM (inactive). For the same compound, the GI50 (OVCAR-3) was 38.5 µM (inactive), the GI50 (U-251) was 15.6 µM (inactive) and the GI50 (Malme-3M) was 17.5 µM (inactive). The GI50 (SR) was 10.7 µM (inactive), the GI50 (SF-268) was 18.6 µM (inactive) and the GI50 (UACC-62) was 16.1 µM (inactive). For the same compound, the GI50 (NCI-H460) was 19.6 µM (inactive), the GI50 (T47D) was 29.9 µM (inactive) and the GI50 (MDA-MB-231) was 20.7 µM (inactive). The GI50 (MOLT-4) was 12.8 µM (inactive).
In the case of `Nc1nc(N)c2cc(Sc3ccc4ccccc4c3)ccc2n1`, the GI50 (MDA-N) is reported as 0.733 µM (active), the GI50 (UACC-257) is reported as 1.58 µM (inactive) and the GI50 (LOX IMVI) is reported as 0.627 µM (active). The GI50 (SN12C) was 1.03 µM (active), the GI50 (A498) was 11.5 µM (inactive) and the GI50 (OVCAR-8) was 1 µM (active). For the same compound, the GI50 (OVCAR-5) was 3.48 µM (inactive), the GI50 (OVCAR-3) was 5.89 µM (inactive) and the GI50 (U-251) was 2.15 µM (inactive). For the same compound, the GI50 (SNB-75) was 14.4 µM (inactive), the GI50 (SF-268) was 3.11 µM (inactive) and the GI50 (UACC-62) was 0.568 µM (active). The GI50 (NCI-H460) was 0.682 µM (active), the GI50 (T47D) was 2.12 µM (inactive) and the GI50 (MDA-MB-231) was 2.54 µM (inactive). The GI50 (MOLT-4) was 2.8 µM (inactive).
In the case of `O=C(/C(=N/Nc1cn[nH]c(=O)c1Cl)c1ccccc1)c1ccccc1`, the GI50 (MDA-N) is reported as 4.99 µM (inactive), the GI50 (UACC-257) is reported as 29.2 µM (inactive) and the GI50 (IGROV-1) is reported as 18.9 µM (inactive). For the same compound, the GI50 (LOX IMVI) was 18.8 µM (inactive), the GI50 (SN12C) was 27.4 µM (inactive) and the GI50 (HCC 2998) was 26.9 µM (inactive). For the same compound, the GI50 (A498) was 14.7 µM (inactive), the GI50 (OVCAR-8) was 36.1 µM (inactive) and the GI50 (OVCAR-3) was 18 µM (inactive). For the same compound, the GI50 (U-251) was 26.9 µM (inactive), the GI50 (Malme-3M) was 52.7 µM (inactive) and the GI50 (SNB-75) was 8.79 µM (inactive). For the same compound, the GI50 (UACC-62) was 16 µM (inactive), the GI50 (T47D) was 28.4 µM (inactive) and the GI50 (MDA-MB-231) was 24.7 µM (inactive). The GI50 (MOLT-4) was 23.2 µM (inactive).
With `c1ccc2c(c1)C(=Nc1ccc(N=C3c4ccccc4-c4ccccc43)cc1)c1ccccc1-2` the GI50 (MDA-N) was > 100 µM (inactive), the GI50 (UACC-257) was > 100 µM (inactive) and the GI50 (IGROV-1) was > 100 µM (inactive). For the same compound, the GI50 (LOX IMVI) was > 100 µM (inactive), the GI50 (SN12C) was > 100 µM (inactive) and the GI50 (HCC 2998) was > 100 µM (inactive). For the same compound, the GI50 (A498) was > 100 µM (inactive), the GI50 (OVCAR-8) was > 100 µM (inactive) and the GI50 (OVCAR-5) was > 100 µM (inactive). The GI50 (OVCAR-3) was > 100 µM (inactive), the GI50 (U-251) was > 100 µM (inactive) and the GI50 (Malme-3M) was > 100 µM (inactive). For the same compound, the GI50 (SF-268) was > 100 µM (inactive), the GI50 (UACC-62) was > 100 µM (inactive) and the GI50 (NCI-H460) was > 100 µM (inactive). For the same compound, the GI50 (T47D) was > 100 µM (inactive), the GI50 (MDA-MB-231) was > 100 µM (inactive) and the GI50 (MOLT-4) was > 100 µM (inactive).
